Assay results: US20250345350A1, “TREATING PAIN ASSOCIATED WITH CENTRAL SENSITIZATION” (Medicon Pharmaceuticals, Inc., priority 2022, published 2025)
Read-outs that look alike come from different tables or passages of the source.

Columns and labels:
[1] = tested on: STZ-induced central sensitization in Sprague-Dawley rats; experiment: PWT (von Frey), streptozotocin rat model of central sensitization (Example 4); format: in vivo; details: 0.7% sulindac hydrogel 3 times a day for 1 week; 5% lidocaine cream once 30 min before; pregabalin 10 mg/kg orally once 1 h before
Description: Sprague-Dawley rats were fasted for 4-6 hours before being injected intraperitoneally with 45 mg/kg STZ. This was performed for all experimental groups, except the naive group. In order to prevent hypoglycaemic death, rats received 10% sucrose water as the sole water source for the first 48 hours after injection. In order to ensure only those rats considered diabetic (i.e., having non-fasting plasma glucose levels of >250 mg/dL) were included in the study, blood glucose was measured at 72 hours after the STZ injection.
Four weeks after STZ injection, the rats were randomised into treatment groups. This delay between STZ injection and treatment allows the establishment of chronic pain (allodynia) associated with central sensitization. […] 5% lidocaine cream (positive control) was applied only once to both hind paws of the rats 30 minutes before measurement of PWT.
The rats were split into 8 study groups, with those in the experimental groups (1-4) having an average body weight of about 225 g, and those in the control groups (5-8) having an average body weight of about 335 g, as follows: • 1. Group 1: naive rats (n=5) • 2. Group 2: STZ only (n=6) • 3. Group 3: STZ plus vehicle (n=6) • 4. […] Group 5: STZ plus oral vehicle (n=8) • 6. Group 6: STZ plus 0.7% sulindac hydrogel (n=7) • 7. Group 7: STZ plus 5% lidocaine cream (n=8) • 8.

[2] = tested on: PHN induced by HSV-1 KOS strain virus in BALB/c mice; experiment: PWT (von Frey), HSV-1 mouse model of PHN, topical (Example 20); format: in vivo; details: Post-inoculation and treatment, sulindac 5% gel on both hind paws three times a day for three days
Description: PHN was induced in mice by infecting them with the HSV-1 KOS strain virus and following established protocols (Ou et al, Front Immunol, 14, 1026269, 2023; Takasaki et al, Anesthesiology, 96(5), 1168-74, 2002).
; Reckitt Benckiser). Three days later, HSV-1 (10^6 PFUs in 20 μl PBS) was inoculated on the shin of the right hind paw (5×5 mm) after scarification with sandpaper. The virus was applied directly to the scarified area. The contralateral hind paw was without inoculation. Mock infection was performed using the same virus inactivated by heating at 60° C. for 1 h.
. Group 1: sham inoculated (n=5-7) • 2.
In a second experiment, the effect of the parent compound, sulindac, was tested in the same mouse model. Five days post-inoculation, sulindac (as a 5% gel), or vehicle control were administered topically onto both hind paws of mice three times a day for three days.
. Group 1: vehicle control (n=5-7) • 2. Group 2: sulindac 5% (n=5-7)

[3] = Pharmacokinetics and biodistribution after topical PS 8% ointment to hind paws (Example 25); format: in vivo, mouse; details: all tissues except the sciatic nerve (higher) and DRG (equal)
Description: At 0.5, 1, 3, 5, 12, 18, and 24 h, mice (n=4-5 mice/time point) were euthanized with CO2 inhalation. Blood was drawn immediately after death. Tissues, including paw skin, paw muscle, leg muscle, the sciatic nerve and lumbar DRG bilaterally were dissected quickly, immediately frozen in liquid nitrogen and stored at −80° C. until analyzed.

[4] = PS and metabolites in proximal and distal half of the sciatic nerve (Example 25); format: in vivo, mouse; details: sciatic nerve halves, 30 min after last dose
Description: In a separate experiment we studied 8 mice with paclitaxel-induced PN treated with PS 8% ointment 3×/d for 2 wks. Mice were euthanized as above 30 minutes after the last dose of PS. From these mice we harvested both sciatic nerves dividing each into proximal and distal halves, and combined the corresponding halves of every two animals for assay of drug levels.

[5] = Pharmacokinetics and biodistribution after 3% PS gel on outer surface of eyelid (Example 26); format: in vivo, rabbit; details: rabbits, 3% PS gel on outer surface of upper eyelids; for AUC(0-t): read-out: AUC0-24 h; for concentration at 0.5 h / concentration at 1 h / concentration at 2 h / concentration at 4 h / concentration at 8 h / concentration at 24 h: topical, read-out: Amount in tissue, Mean ± SEM
Description: The pharmacokinetics and biodistribution of 3% PS gel applied to the outer surface of both upper eyelids was studies in male New Zealand White rabbits.
Eyelid and tissues of the globe were dissected and frozen quickly in liquid nitrogen until the levels of PS and its metabolites were determined by HPLC as described Xie et al. (Br J Pharmacol (2012);165:2152-66).

[6] = tested on: paclitaxel-induced central sensitization in C57/BL/6J mice; details: day 14; PS hydrogel 5% or 0.7% sulindac 3 times a day; 5% lidocaine cream once 30 min before; pregabalin 10 mg/kg orally once 1 h before
Description: Regarding the treatment with lidocaine: 5% lidocaine cream (a positive control) was applied once to both hind paws of the mice 30 minutes before measurement of PWT.
Briefly, for mechanical allodynia, pain threshold responses were measured using the well-established method of von Frey filaments in line with that performed in the earlier Examples. The PWT test was performed on day-8 (before the first dose of paclitaxel), the day of starting treatment (day 0, at which central sensitization was fully established) and day 14 (treatment continued until day 15). The mechanical threshold, expressed as g, indicates the force of the von Frey filament to which the animal reacted.

[7] = tested on: NTG-induced chronic migraine in mice; experiment: PWT (von Frey), NTG-induced chronic migraine model, oral (Example 16)
Description: In particular, mice receive sublingual NTG 0.4 mg in the form of a finely crushed 0.4 mg NTG tablet (Greenstone Brand) every two days, receiving a total of five doses. For control mice, an NTG placebo (Practi-Nitroglycerin Sublingual 0.4 mg Simulated Medication tablet) was administered in the same way.
Group 1: placebo NTG (i.e, no NTG treatment, n=8) • 2. Group 2: NTG (n=8) • 3. Group 3: NTG+vehicle (n=8) • 4. […] Group 5: NTG+sulindac (n=8)
Mechanical allodynia was determined using von Frey filaments in line with that performed in the earlier Examples. The PWT test was performed prior to NTG (or placebo NTG) administration to determine baseline values, as indicated. […] The mechanical threshold, expressed as g, indicates the force of the von Frey filament to which the animal reacted.

[8] = tested on: NTG-induced migraine in C57BL/6J mice; experiment: PWT (von Frey), NTG-induced migraine mouse model, topical (Example 13)
Description: Specifically, instead of the intraperitoneal injection of NTG, a finely crushed 0.4 mg NTG tablet (Greenstone Brand) was administered sublingually. As a control, a Practi-Nitroglycerin Sublingual 0.4 mg Simulated Medication tablet was used.
For determining mechanical allodynia, pain threshold responses were measured using the well-established method of von Frey filaments in line with that performed in the earlier Examples.
The PWT test, assessing mechanical allodynia, was performed 30 minutes after treatment. The mechanical threshold, expressed as g, indicates the force of the von Frey filament to which the animal reacted.

[9] = male, New Zealand White, rabbit, topical or ocular, conjunctiva
[10] = male, New Zealand White, rabbit, topical or ocular, cornea
[11] = male, New Zealand White, rabbit, topical or ocular, eyelid
[12] = male, New Zealand White, rabbit, AH (aqueous humor)
[13] = male, New Zealand White, rabbit, conjunctiva
[14] = male, New Zealand White, rabbit, cornea
[15] = male, New Zealand White, rabbit, eyelid
[16] = male, New Zealand White, rabbit, vitreous

CC1=C(CC(=O)O)c2cc(F)ccc2/C1=C\c1ccc([S+](C)[O-])cc1 (centres unmarked) [sulindac]
PWT, gm Mean ± SEM [1]: 23.2 ± 2.6 gm | PWT, g Mean ± SEM [2]: 0.56 ± 0.06 g | PWT, g Mean ± SEM ([2]; listed as Sulindac): 0.56 ± 0.06 g | sulindac levels relative to those of PS [3]: around 25% | Fold difference (distal vs proximal) [4]: 8.5 fold | Tmax ([5]; eyelid): 1 h | Cmax [5, 9]: 800 nM | AUC(0-t) [5, 9]: 2.5 ± 0.3 µM·h | Tmax ([5]; male, New Zealand White, rabbit, topical or ocular, conjunctiva, read-out: TMax): 8 h | Cmax [5, 10]: 600 nM | half-life [5, 10]: 7.4 h | AUC(0-t) [5, 10]: 2.4 ± 0.5 µM·h | Cmax [5, 11]: 3600 nM | half-life [5, 11]: 1.1 h | AUC(0-t) [5, 11]: 5.5 ± 0.8 µM·h | concentration at 0.5 h [5, 12]: 0 nM | concentration at 1 h [5, 12]: 0 nM | concentration at 2 h [5, 12]: 0 nM | concentration at 4 h [5, 12]: 0 nM | concentration at 8 h [5, 12]: 0 nM | concentration at 24 h [5, 12]: 0 nM | concentration at 0.5 h [5, 13]: 100 ± 100 nM | concentration at 1 h [5, 13]: 200 ± 100 nM | concentration at 2 h [5, 13]: 0 nM | concentration at 4 h [5, 13]: 100 ± 100 nM | concentration at 8 h [5, 13]: 800 ± 500 nM | concentration at 24 h [5, 13]: 0 nM | concentration at 0.5 h [5, 14]: 400 ± 200 nM | concentration at 1 h [5, 14]: 600 ± 100 nM | concentration at 2 h [5, 14]: 0 nM | concentration at 4 h [5, 14]: 300 ± 100 nM | concentration at 8 h [5, 14]: 200 ± 200 nM | concentration at 24 h [5, 14]: 0 nM | concentration at 0.5 h [5, 15]: 1000 ± 100 nM | concentration at 1 h [5, 15]: 3600 ± 1200 nM | concentration at 2 h [5, 15]: 0 nM | concentration at 4 h [5, 15]: 500 ± 200 nM | concentration at 8 h [5, 15]: 0 nM | concentration at 24 h [5, 15]: 0 nM | concentration at 0.5 h [5, 16]: 0 nM | concentration at 1 h [5, 16]: 0 nM | concentration at 2 h [5, 16]: 0 nM | concentration at 4 h [5, 16]: 0 nM | concentration at 8 h [5, 16]: 0 nM | concentration at 24 h [5, 16]: 0 nM | PWT, g Mean ± SEM [6]: 0.62 ± 0.05 g | PWT, g Mean ± SEM ([7]; Baseline, prior to NTG administration): 1.80 ± 0.12 g | PWT, g Mean ± SEM ([7]; Day 11, orally once a day for 11 days concurrent with NTG, PS 50 mg/kg, sulindac 33 mg/kg): 0.43 ± 0.03 g | PWT Post-treatment Mean ± SEM ([8]; 30 min after treatment, PS 8% gel or sulindac 5.3% (in DMSO) on both hind paws 30 min after NTG): 0.55 ± 0.02 g | PWT Baseline Mean ± SEM ([8]; baseline of the group, before NTG and treatment): 1.43 ± 0.15 g
